Assay results as given in the OligoGym collection.
HELM strings list units from the 5' end as sugar, base in round brackets, then linkage (d deoxyribose, r ribose, m 2'-O-methyl, p phosphodiester). Strings are as the collection lists them, not checked against the first reports. ss, as = sense and antisense strand; [s4r] = 4'-thioribose; [fl2r] = 2'-fluoro

Conditions: siRNA
Note: test system not given here.

Substance	target mRNA knockdown
RNA1{r(A)p.r(A)p.r(A)p.r(C)p.r(A)p.r(U)p.r(G)p.r(C)p.r(A)p.r(G)p.r(A)p.r(A)p.r(A)p.r(A)p.r(U)p.r(G)p.r(C)p.r(U)p.r(G)p.r(T)p.r(T)}|RNA2{[s4r](C)p.[s4r](A)p.r(G)p.r(C)p.r(A)p.r(U)p.r(U)p.r(U)p.r(U)p.r(C)p.r(U)p.r(G)p.r(C)p.r(A)p.r(U)p.r(G)p.r(U)p.[s4r](U)p.[s4r](U)p.r(T)p.r(T)}$$$RNA1{StrandType:ss}|RNA2{StrandType:as}$	42.5%
RNA1{r(G)p.r(A)p.r(G)p.[fl2r](U)p.r(A)p.r(U)p.r(U)p.r(U)p.r(C)p.r(C)p.r(G)p.r(C)p.r(U)p.r(G)p.r(G)p.r(A)p.r(A)p.r(C)p.r(U)p.r(T)p.r(T)}|RNA2{r(A)p.r(G)p.r(U)p.r(U)p.r(C)p.r(C)p.r(A)p.r(G)p.r(C)p.r(G)p.r(G)p.r(A)p.r(A)p.r(A)p.[fl2r](U)p.r(A)p.r(C)p.r(U)p.r(C)p.r(T)p.r(T)}$$$RNA1{StrandType:ss}|RNA2{StrandType:as}$	75%
RNA1{r(G)p.m(C)p.r(A)p.r(G)p.r(A)p.r(G)p.r(A)p.r(A)p.r(U)p.r(C)p.m(U)p.r(A)p.r(C)p.r(C)p.r(U)p.r(U)p.r(U)p.r(C)p.r(C)p.r(T)p.r(T)}|RNA2{r(G)p.r(G)p.r(A)p.r(A)p.r(A)p.r(G)p.r(G)p.m(U)p.r(A)p.r(G)p.r(A)p.r(U)p.r(U)p.r(C)p.r(U)p.r(C)p.m(U)p.r(G)p.r(C)p.r(T)p.r(T)}$$$RNA1{StrandType:ss}|RNA2{StrandType:as}$	75%
RNA1{r(G)p.r(G)p.r(U)p.r(A)p.r(G)p.r(G)p.r(G)p.r(U)p.r(U)p.r(G)p.r(A)p.r(A)p.r(G)p.r(A)p.r(G)p.r(A)p.r(C)p.r(U)p.r(U)p.r(T)p.r(T)}|RNA2{r(A)p.r(A)p.r(G)p.r(U)p.r(C)p.r(U)p.r(C)p.r(U)p.r(U)p.r(C)p.r(A)p.r(A)p.r(C)p.r(C)p.r(C)p.m(U)p.r(A)p.r(C)p.r(C)p.r(T)p.r(T)}$$$RNA1{StrandType:ss}|RNA2{StrandType:as}$	95%
RNA1{[s4r](C)p.[s4r](G)p.[s4r](U)p.[s4r](A)p.[s4r](C)p.[s4r](G)p.r(C)p.r(G)p.r(G)p.r(A)p.r(A)p.r(U)p.r(A)p.[s4r](C)p.[s4r](U)p.[s4r](U)p.[s4r](C)p.[s4r](G)p.[s4r](A)p.r(T)p.r(T)}|RNA2{r(U)p.r(C)p.r(G)p.r(A)p.r(A)p.r(G)p.r(U)p.r(A)p.r(U)p.r(U)p.r(C)p.r(C)p.r(G)p.r(C)p.r(G)p.r(U)p.r(A)p.r(C)p.r(G)p.r(T)p.r(T)}$$$RNA1{StrandType:ss}|RNA2{StrandType:as}$	91.5%
RNA1{m(U)p.r(U)p.m(A)p.r(A)p.m(G)p.r(G)p.m(A)p.r(G)p.m(A)p.r(A)p.m(G)p.r(C)p.m(U)p.r(G)p.m(A)p.r(C)p.m(G)p.r(G)p.m(C)p.r(T)p.r(T)}|RNA2{r(G)p.r(C)p.r(C)p.r(G)p.r(U)p.r(C)p.r(A)p.r(G)p.r(C)p.r(U)p.r(U)p.r(C)p.r(U)p.r(C)p.r(C)p.r(U)p.r(U)p.r(A)p.r(A)p.r(T)p.r(T)}$$$RNA1{StrandType:ss}|RNA2{StrandType:as}$	24%
RNA1{r(G)p.r(C)p.r(G)p.r(A)p.r(G)p.m(C)p.r(A)p.r(G)p.r(A)p.r(G)p.r(A)p.r(A)p.r(U)p.r(C)p.m(U)p.r(A)p.r(C)p.r(C)p.r(U)p.r(T)p.r(T)}|RNA2{r(A)p.r(G)p.r(G)p.m(U)p.r(A)p.r(G)p.r(A)p.r(U)p.r(U)p.r(C)p.r(U)p.r(C)p.m(U)p.r(G)p.r(C)p.r(U)p.r(C)p.r(G)p.r(C)p.r(T)p.r(T)}$$$RNA1{StrandType:ss}|RNA2{StrandType:as}$	90%
RNA1{m(A)p.r(G)p.m(A)p.r(A)p.m(A)p.r(A)p.m(G)p.r(C)p.m(A)p.r(G)p.m(C)p.r(G)p.m(A)p.r(U)p.m(A)p.r(C)p.m(G)p.r(C)p.m(U)p.r(T)p.r(T)}|RNA2{r(A)p.r(G)p.r(C)p.r(G)p.r(U)p.r(A)p.r(U)p.r(C)p.r(G)p.r(C)p.r(U)p.r(G)p.r(C)p.r(U)p.r(U)p.r(U)p.r(U)p.r(C)p.r(U)p.r(T)p.r(T)}$$$RNA1{StrandType:ss}|RNA2{StrandType:as}$	34%
